Where a SMILES comes first, the peptide text is derived from it. [ ]: non-standard residue; d: D form. The star is where a group is joined. X1 = Cc1ccc(Nc2ncc3c(n2)N(C)C(=O)N(c2cc(C(=O)*)ccc2C)C3)cn1; Aib = CC(C)(N)C(=O)O
Tests used:
Assay in all cases: kinase selectivity profiling
Type in all cases: biochemical
Conditions in all cases: 10µM ATP, read-out: % inhibition (relative to DMSO)
PYK2 = target: T1, PYK2 (Homo sapiens, UniProt Q14289)
T1 construct: purchased Reaction Biology Corp
Description: (§1) Full panel kinase profiling and kinase IC50 measurement were performed by using Reaction Biology Corp. (San Diego, USA).

PKG1a = target: T2, PKG1a (Homo sapiens, UniProt Q13976)
T2 construct: purchased Reaction Biology Corp
Description: as §1

MLK3/MAP3K11 = target: T3, MLK3/MAP3K11 (Homo sapiens, UniProt Q16584)
T3 construct: purchased Reaction Biology Corp
T3 sequence (Q16584 whole entry): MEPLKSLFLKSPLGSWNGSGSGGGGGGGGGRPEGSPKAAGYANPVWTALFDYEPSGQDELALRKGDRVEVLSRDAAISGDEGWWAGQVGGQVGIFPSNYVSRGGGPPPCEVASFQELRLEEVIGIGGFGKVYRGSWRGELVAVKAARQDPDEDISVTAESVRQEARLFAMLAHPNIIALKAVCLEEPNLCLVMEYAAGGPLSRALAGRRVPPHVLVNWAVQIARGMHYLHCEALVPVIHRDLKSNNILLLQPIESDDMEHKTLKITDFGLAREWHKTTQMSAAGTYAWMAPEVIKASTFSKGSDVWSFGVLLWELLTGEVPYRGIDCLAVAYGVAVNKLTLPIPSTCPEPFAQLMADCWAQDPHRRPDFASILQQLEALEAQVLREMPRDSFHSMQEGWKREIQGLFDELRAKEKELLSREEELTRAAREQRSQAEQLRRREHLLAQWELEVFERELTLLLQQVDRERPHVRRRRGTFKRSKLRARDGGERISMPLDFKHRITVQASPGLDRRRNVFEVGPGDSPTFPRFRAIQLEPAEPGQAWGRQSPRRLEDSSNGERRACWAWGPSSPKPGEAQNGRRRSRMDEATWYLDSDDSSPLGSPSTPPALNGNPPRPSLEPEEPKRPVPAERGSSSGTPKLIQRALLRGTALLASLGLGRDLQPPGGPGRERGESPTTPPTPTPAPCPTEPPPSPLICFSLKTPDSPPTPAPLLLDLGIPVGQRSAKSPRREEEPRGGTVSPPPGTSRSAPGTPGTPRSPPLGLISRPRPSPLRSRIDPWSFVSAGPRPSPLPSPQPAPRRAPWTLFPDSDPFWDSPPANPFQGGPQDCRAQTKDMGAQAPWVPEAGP
Description: as §1

GRK1 = target: T4, GRK1 (Homo sapiens, UniProt Q15835)
T4 construct: purchased Reaction Biology Corp
Description: as §1

DYRK3 = target: T5, DYRK3 (Homo sapiens, UniProt O43781)
T5 construct: purchased Reaction Biology Corp
T5 sequence (O43781 whole entry): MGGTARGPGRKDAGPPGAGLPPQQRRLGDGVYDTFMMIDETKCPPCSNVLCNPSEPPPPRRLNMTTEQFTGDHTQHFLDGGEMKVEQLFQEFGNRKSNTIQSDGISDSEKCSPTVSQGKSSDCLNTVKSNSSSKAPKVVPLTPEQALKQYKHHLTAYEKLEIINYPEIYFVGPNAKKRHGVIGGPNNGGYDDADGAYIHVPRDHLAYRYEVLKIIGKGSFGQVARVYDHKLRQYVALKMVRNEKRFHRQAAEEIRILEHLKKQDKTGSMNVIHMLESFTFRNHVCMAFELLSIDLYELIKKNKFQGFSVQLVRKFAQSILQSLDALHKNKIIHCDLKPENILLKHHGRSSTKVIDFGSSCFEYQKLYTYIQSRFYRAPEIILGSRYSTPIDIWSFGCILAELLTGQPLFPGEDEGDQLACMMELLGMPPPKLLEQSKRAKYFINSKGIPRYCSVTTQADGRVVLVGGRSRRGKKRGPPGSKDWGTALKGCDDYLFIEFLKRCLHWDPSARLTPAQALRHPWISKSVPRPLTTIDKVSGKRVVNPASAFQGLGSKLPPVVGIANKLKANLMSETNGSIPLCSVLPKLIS
Description: as §1

CAMKK2 = target: T6, CAMKK2 (Homo sapiens, UniProt Q96RR4)
T6 construct: purchased Reaction Biology Corp
Description: as §1

PKCzeta = target: T7, PKCzeta (Homo sapiens, UniProt Q05513)
T7 construct: purchased Reaction Biology Corp
Description: as §1

ULK3 = target: T8, ULK3 (Homo sapiens, UniProt Q6PHR2)
T8 construct: purchased Reaction Biology Corp
Description: as §1

TRKA = target: T9, TRKA (Homo sapiens, UniProt P04629)
T9 construct: purchased Reaction Biology Corp
Description: as §1

MINK/MINK1 = target: T10, MINK/MINK1 (Homo sapiens, UniProt Q8N4C8)
T10 construct: purchased Reaction Biology Corp
T10 sequence (Q8N4C8 whole entry): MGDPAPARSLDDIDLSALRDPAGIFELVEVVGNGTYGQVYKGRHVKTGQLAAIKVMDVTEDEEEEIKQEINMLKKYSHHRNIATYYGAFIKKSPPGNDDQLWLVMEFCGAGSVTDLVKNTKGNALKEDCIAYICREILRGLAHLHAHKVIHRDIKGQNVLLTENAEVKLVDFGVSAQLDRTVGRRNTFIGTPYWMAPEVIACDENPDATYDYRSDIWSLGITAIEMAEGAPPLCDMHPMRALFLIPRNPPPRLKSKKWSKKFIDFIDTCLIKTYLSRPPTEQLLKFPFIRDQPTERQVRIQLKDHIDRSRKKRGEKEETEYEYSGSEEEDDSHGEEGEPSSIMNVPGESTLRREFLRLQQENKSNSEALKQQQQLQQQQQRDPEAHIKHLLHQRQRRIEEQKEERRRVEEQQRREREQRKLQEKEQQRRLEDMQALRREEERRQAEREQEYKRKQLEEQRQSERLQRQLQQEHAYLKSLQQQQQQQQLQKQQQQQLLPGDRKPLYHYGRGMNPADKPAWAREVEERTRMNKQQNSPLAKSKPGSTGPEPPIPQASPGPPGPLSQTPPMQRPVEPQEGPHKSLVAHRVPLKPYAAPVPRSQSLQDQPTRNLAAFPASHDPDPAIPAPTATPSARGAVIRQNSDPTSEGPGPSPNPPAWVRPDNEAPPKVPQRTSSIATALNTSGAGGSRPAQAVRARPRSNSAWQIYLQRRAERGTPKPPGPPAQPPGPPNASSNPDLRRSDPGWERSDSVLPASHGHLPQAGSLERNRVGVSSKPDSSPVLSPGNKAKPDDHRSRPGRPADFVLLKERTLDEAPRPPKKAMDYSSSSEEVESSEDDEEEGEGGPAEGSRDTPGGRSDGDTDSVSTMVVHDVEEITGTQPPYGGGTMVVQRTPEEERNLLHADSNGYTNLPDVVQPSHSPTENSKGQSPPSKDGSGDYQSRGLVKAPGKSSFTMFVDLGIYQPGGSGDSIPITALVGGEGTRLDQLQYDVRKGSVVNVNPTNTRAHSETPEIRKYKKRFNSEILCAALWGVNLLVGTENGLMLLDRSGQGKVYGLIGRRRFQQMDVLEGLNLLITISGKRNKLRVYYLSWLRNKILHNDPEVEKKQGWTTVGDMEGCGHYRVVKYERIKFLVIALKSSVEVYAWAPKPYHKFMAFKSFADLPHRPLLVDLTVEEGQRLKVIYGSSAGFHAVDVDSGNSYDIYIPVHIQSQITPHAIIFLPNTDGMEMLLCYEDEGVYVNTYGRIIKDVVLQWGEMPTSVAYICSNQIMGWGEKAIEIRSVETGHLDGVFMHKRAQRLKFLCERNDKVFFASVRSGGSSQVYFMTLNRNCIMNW
Description: as §1

TYK1/LTK = target: T11, TYK1/LTK (Homo sapiens, UniProt P29376)
T11 construct: purchased Reaction Biology Corp
T11 sequence (P29376 17-864): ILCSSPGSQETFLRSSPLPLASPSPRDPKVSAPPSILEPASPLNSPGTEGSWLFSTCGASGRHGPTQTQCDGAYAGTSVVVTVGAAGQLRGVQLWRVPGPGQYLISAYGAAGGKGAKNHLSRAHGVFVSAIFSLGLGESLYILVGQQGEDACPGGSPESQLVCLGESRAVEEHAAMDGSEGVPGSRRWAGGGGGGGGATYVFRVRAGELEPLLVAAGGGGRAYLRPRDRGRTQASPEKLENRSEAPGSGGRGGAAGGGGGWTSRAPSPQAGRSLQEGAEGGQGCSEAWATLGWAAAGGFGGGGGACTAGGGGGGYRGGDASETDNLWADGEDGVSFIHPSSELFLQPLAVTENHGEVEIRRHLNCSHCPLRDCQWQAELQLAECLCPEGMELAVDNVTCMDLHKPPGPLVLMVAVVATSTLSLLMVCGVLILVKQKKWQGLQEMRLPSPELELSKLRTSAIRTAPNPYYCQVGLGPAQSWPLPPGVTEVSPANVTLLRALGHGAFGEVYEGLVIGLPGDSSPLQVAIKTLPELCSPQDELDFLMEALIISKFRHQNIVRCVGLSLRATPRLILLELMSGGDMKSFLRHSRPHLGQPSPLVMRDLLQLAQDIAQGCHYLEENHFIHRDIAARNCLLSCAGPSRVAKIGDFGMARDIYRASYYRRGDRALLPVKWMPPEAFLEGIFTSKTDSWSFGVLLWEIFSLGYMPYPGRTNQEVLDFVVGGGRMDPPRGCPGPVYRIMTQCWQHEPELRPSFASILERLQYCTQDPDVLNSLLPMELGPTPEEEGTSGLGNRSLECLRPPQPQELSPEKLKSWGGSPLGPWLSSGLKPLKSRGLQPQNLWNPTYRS
Description: as §1

ALK4/ACVR1B = target: T12, ALK4/ACVR1B (Homo sapiens, UniProt P36896)
T12 construct: purchased Reaction Biology Corp
Description: as §1

CLK2 = target: T13, CLK2 (Homo sapiens, UniProt P49760)
T13 construct: purchased Reaction Biology Corp
Description: as §1

BRSK2 = target: T14, BRSK2 (Homo sapiens, UniProt Q8IWQ3)
T14 construct: purchased Reaction Biology Corp
T14 sequence (Q8IWQ3 whole entry): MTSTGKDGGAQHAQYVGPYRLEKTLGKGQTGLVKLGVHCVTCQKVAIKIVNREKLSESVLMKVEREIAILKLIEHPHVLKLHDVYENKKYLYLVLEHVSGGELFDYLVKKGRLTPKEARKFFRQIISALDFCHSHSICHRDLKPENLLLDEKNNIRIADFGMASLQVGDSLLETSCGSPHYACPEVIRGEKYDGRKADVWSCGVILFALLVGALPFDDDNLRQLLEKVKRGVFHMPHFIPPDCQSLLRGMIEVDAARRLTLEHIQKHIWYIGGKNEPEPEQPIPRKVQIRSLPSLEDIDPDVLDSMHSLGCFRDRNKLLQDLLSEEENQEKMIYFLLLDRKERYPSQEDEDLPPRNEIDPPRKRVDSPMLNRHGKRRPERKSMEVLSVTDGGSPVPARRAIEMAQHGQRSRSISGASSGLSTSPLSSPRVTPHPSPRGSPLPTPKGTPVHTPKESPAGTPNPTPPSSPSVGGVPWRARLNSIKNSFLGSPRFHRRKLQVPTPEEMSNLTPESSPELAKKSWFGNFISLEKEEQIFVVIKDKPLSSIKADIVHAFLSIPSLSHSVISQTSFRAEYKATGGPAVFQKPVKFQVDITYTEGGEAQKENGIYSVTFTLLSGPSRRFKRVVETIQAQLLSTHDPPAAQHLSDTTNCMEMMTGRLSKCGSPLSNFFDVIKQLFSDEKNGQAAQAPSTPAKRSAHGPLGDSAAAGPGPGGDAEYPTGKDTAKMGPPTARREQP
Description: as §1

PKCtheta = target: T15, PKCtheta (Homo sapiens, UniProt Q04759)
T15 construct: purchased Reaction Biology Corp
Description: as §1

DYRK2 = target: T16, DYRK2 (Homo sapiens, UniProt Q92630)
T16 construct: purchased Reaction Biology Corp
Description: as §1

AXL = target: T17, AXL (Homo sapiens, UniProt P30530)
T17 construct: purchased Reaction Biology Corp
Description: as §1

MST2/STK3 = target: T18, MST2/STK3 (Homo sapiens, UniProt Q13188)
T18 construct: purchased Reaction Biology Corp
Description: as §1

CK1epsilon = target: T19, CK1epsilon (Homo sapiens, UniProt P49674)
T19 construct: purchased Reaction Biology Corp
Description: as §1

EPHB2 = target: T20, EPHB2 (Homo sapiens, UniProt P29323)
T20 construct: purchased Reaction Biology Corp
Description: as §1

p38a/MAPK14 = target: T21, p38a/MAPK14 (Homo sapiens, UniProt Q16539)
T21 construct: purchased Reaction Biology Corp
Description: as §1

GRK4 = target: T22, GRK4 (Homo sapiens, UniProt P32298)
T22 construct: purchased Reaction Biology Corp
Description: as §1

ITK = target: T23, ITK (Homo sapiens, UniProt Q08881)
T23 construct: purchased Reaction Biology Corp
Description: as §1

IKKe/IKBKE = target: T24, IKKe/IKBKE (Homo sapiens, UniProt Q14164)
T24 construct: purchased Reaction Biology Corp
Description: as §1

HGK/MAP4K4 = target: T25, HGK/MAP4K4 (Homo sapiens, UniProt O95819)
T25 construct: purchased Reaction Biology Corp
Description: as §1

TBK1 = target: T26, TBK1 (Homo sapiens, UniProt Q9UHD2)
T26 construct: purchased Reaction Biology Corp
T26 sequence (Q9UHD2 whole entry): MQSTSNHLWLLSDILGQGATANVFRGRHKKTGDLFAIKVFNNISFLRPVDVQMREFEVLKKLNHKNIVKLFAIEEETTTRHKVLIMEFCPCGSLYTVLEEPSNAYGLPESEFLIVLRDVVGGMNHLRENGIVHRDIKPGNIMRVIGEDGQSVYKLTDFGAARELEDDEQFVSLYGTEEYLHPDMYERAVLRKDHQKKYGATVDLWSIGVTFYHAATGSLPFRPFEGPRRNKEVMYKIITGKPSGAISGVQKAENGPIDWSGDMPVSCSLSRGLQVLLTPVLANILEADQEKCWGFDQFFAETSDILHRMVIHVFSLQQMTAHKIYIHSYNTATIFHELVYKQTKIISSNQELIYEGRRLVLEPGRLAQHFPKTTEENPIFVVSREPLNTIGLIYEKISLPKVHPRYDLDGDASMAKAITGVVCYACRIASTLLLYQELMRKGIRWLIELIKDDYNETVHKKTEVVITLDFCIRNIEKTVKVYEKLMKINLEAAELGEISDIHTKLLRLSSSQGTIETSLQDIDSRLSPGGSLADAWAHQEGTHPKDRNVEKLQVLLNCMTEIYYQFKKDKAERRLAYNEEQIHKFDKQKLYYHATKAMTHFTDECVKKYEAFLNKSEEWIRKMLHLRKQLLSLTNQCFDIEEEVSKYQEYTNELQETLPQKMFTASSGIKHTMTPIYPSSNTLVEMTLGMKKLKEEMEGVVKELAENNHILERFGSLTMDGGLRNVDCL
Description: as §1

LYN B = target: T27, LYN B (Homo sapiens, UniProt P07948)
T27 construct: purchased Reaction Biology Corp
Description: as §1

PLK4/SAK = target: T28, PLK4/SAK (Homo sapiens, UniProt O00444)
T28 construct: purchased Reaction Biology Corp
Description: as §1

VRK1 = target: T29, VRK1 (Homo sapiens, UniProt Q99986)
T29 construct: purchased Reaction Biology Corp
Description: as §1

RSK3 = target: T30, RSK3 (Homo sapiens, UniProt Q15349)
T30 construct: purchased Reaction Biology Corp
Description: as §1

NEK6 = target: T31, NEK6 (Homo sapiens, UniProt Q9HC98)
T31 construct: purchased Reaction Biology Corp
Description: as §1

CAMKK1 = target: T32, CAMKK1 (Homo sapiens, UniProt Q8N5S9)
T32 construct: purchased Reaction Biology Corp
Description: as §1

BRAF = target: T33, BRAF (Homo sapiens, UniProt P15056)
T33 construct: purchased Reaction Biology Corp
Description: as §1

PKAcb = target: T34, PKAcb (Homo sapiens, UniProt P22694)
T34 construct: purchased Reaction Biology Corp
Description: as §1

FGFR2 = target: T35, FGFR2 (Homo sapiens, UniProt P21802)
T35 construct: purchased Reaction Biology Corp
Description: as §1

PAK4 = target: T36, PAK4 (Homo sapiens, UniProt O96013)
T36 construct: purchased Reaction Biology Corp
Description: as §1

CDK2/cyclin O = target: T37, CDK2/cyclin O (Homo sapiens, UniProt P24941)
T37 construct: purchased Reaction Biology Corp
Description: as §1

PLK1 = target: T38, PLK1 (Homo sapiens, UniProt P53350)
T38 construct: purchased Reaction Biology Corp
Description: as §1

ARK5/NUAK1 = target: T39, ARK5/NUAK1 (Homo sapiens, UniProt O60285)
T39 construct: purchased Reaction Biology Corp
Description: as §1

CDK16/cyclin Y (PCTAIRE) = target: T40, CDK16/cyclin Y (PCTAIRE) (Homo sapiens, UniProt Q00536)
T40 construct: purchased Reaction Biology Corp
Description: as §1

NEK7 = target: T41, NEK7 (Homo sapiens, UniProt Q8TDX7)
T41 construct: purchased Reaction Biology Corp
Description: as §1

MST4 = target: T42, MST4 (Homo sapiens, UniProt Q9P289)
T42 construct: purchased Reaction Biology Corp
Description: as §1

CDK9/cyclin T1 = target: T43, CDK9/cyclin T1 (Homo sapiens, UniProt P50750)
T43 construct: purchased Reaction Biology Corp
Description: as §1

Cc1ccc(Nc2ncc3c(n2)N(C)C(=O)N(c2cc(C(=O)N[C@H](C(=O)N4CCC[C@H]4C(=O)NC(C)(C)C(=O)N[C@@H](CC(C)C)C(=O)N(C)C)C(C)C)ccc2C)C3)cn1 [7a, (S)-N-(1-(((S)-1-(dimethylamino)-4-methyl-1-oxopentan-2-yl)amino)-2-methyl-1-oxopropan-2-yl)-1-((4-methyl-3-(1-methyl-7-((6-methylpyridin-3-yl)amino)-2-oxo-1,4-dihydropyrimido[4,5-d]pyrimidin-3(2H)-yl)benzoyl)-L-valyl)pyrrolidine-2-carboxamide] (X1-VP[Aib]L-NMe2)
inhibition at 1 µM (PYK2): 8%
inhibition at 1 µM (PKG1a): 0%
inhibition at 1 µM (MLK3/MAP3K11): 34%
inhibition at 1 µM (GRK1): 0%
inhibition at 1 µM (DYRK3): 23%
inhibition at 1 µM (CAMKK2): 10%
inhibition at 1 µM (PKCzeta): 0%
inhibition at 1 µM (ULK3): 0%
inhibition at 1 µM (TRKA): 0%
inhibition at 1 µM (MINK/MINK1): 2%
inhibition at 1 µM (TYK1/LTK): 0%
inhibition at 1 µM (ALK4/ACVR1B): 0%
inhibition at 1 µM (CLK2): 0%
inhibition at 1 µM (BRSK2): 8%
inhibition at 1 µM (PKCtheta): 0%
inhibition at 1 µM (DYRK2): 8%
inhibition at 1 µM (AXL): 0%
inhibition at 1 µM (MST2/STK3): 7%
inhibition at 1 µM (CK1epsilon): 0%
inhibition at 1 µM (EPHB2): 29%
inhibition at 1 µM (p38a/MAPK14): 15%
inhibition at 1 µM (GRK4): 1%
inhibition at 1 µM (ITK): 7%
inhibition at 1 µM (IKKe/IKBKE): 3%
inhibition at 1 µM (HGK/MAP4K4): 0%
inhibition at 1 µM (TBK1): 0%
inhibition at 1 µM (LYN B): 34%
inhibition at 1 µM (PLK4/SAK): 5%
inhibition at 1 µM (VRK1): 0%
inhibition at 1 µM (RSK3): 0%
inhibition at 1 µM (NEK6): 0%
inhibition at 1 µM (CAMKK1): 0%
inhibition at 1 µM (BRAF): 7%
inhibition at 1 µM (PKAcb): 3%
inhibition at 1 µM (FGFR2): 12%
inhibition at 1 µM (PAK4): 0%
inhibition at 1 µM (CDK2/cyclin O): 0%
inhibition at 1 µM (PLK1): 0%
inhibition at 1 µM (ARK5/NUAK1): 9%
inhibition at 1 µM (CDK16/cyclin Y (PCTAIRE)): 6%
inhibition at 1 µM (NEK7): 2%
inhibition at 1 µM (MST4): 0%
inhibition at 1 µM (CDK9/cyclin T1): 0%
